Measured values published in patent publication US4060606A (Leo Pharmaceutical Products Ltd. A/S, priority 1976, dated 1977).
Values after ≈ are worked out from the molar mass of the structure shown.

Tests used:
Test in all cases: In vitro antibacterial activity, concentrations required for 50% inhibition
Format in all cases: cell-based
Strep. pyogenes Leo EC = details: Streptococcus pyogenes
Excerpt: (§1) Now, however, it has been found, that the compounds of the present invention both in vitro and in vivo show interesting antimicrobial and pharmacokinetic properties. Thereby the compounds of the invention can be used in the treatment of bacterial infections in humans and animals.

[1] = tested on: Bacillus subtilis Leo KA3; details: LEOKA3
Excerpt: as §1

[2] = tested on: Bacteroides fragilis Leo JA2; details: LEOJA2
Excerpt: as §1

Strep. species Leo EG2 = tested on: Strep. species Leo EG2
Excerpt: as §1

[3] = tested on: Staph. aureus Leo CC 178B; details: Staphylococcus aureus, LEOCC178B
Excerpt: as §1

| SMILES | IC50 (Strep. pyogenes Leo EC) | IC50 [1] | IC50 [2] | IC50 (Strep. species Leo EG2) | IC50 [3] |
| --- | --- | --- | --- | --- | --- |
| CC(C)=CCC/C(C(=O)O)=C1/[C@@H](SC(C)C)C[C@@]2(C)[C@H]1C[C@@H](O)[C@H]1[C@@]3(C)CC[C@@H](O)[C@@H](C)[C@@H]3CC[C@@]12C [Example 1, 16-Deacetoxy-16β-isopropylthiofusidic acid] | 0.2 µg/mL (≈ 0.375 µM) | 0.02 µg/mL (≈ 0.0375 µM) | 5 µg/mL (≈ 9.38 µM) | 1 µg/mL (≈ 1.88 µM) | 0.032 µg/mL (≈ 0.0601 µM) |
| CC(C)CCC/C(C(=O)O)=C1/[C@@H](SC(C)C)C[C@@]2(C)[C@H]1C[C@@H](O)[C@H]1[C@@]3(C)CC[C@@H](O)[C@@H](C)[C@@H]3CC[C@@]12C [Example 11, 16-Deacetoxy-16β-isopropylthio-24,25-dihydrofusidic acid] | 0.04 µg/mL (≈ 0.0748 µM) | 0.008 µg/mL (≈ 0.015 µM) | 4 µg/mL (≈ 7.48 µM) | 0.1 µg/mL (≈ 0.187 µM) | 0.016 µg/mL (≈ 0.0299 µM) |
| CC(C)=CCC/C(C(=O)O)=C1/[C@@H](SC(C)C)C[C@@]2(C)[C@H]1CC(=O)[C@H]1[C@@]3(C)CC[C@@H](O)[C@@H](C)[C@@H]3CC[C@@]12C [Example 32, 11-Keto-16-deacetoxy-16β-isopropylthiofusidic acid] | 0.2 µg/mL (≈ 0.377 µM) | 0.02 µg/mL (≈ 0.0377 µM) | 3.2 µg/mL (≈ 6.03 µM) | 0.63 µg/mL (≈ 1.19 µM) | 0.02 µg/mL (≈ 0.0377 µM) |
| CC(C)CCC/C(C(=O)O)=C1/[C@@H](SC(C)C)C[C@@]2(C)[C@H]1CC(=O)[C@H]1[C@@]3(C)CC[C@@H](O)[C@@H](C)[C@@H]3CC[C@@]12C [Example 33, 11-Keto-16-deacetoxy-16β-isopropylthio-24,25-dihydrofusidic acid] | 0.32 µg/mL (≈ 0.601 µM) | 0.05 µg/mL (≈ 0.0938 µM) | 2 µg/mL (≈ 3.75 µM) | 0.79 µg/mL (≈ 1.48 µM) | 0.04 µg/mL (≈ 0.0751 µM) |
| CC(C)=CCC/C(C(=O)O)=C1/[C@@H](SC(C)C)C[C@@]2(C)[C@H]1C[C@@H](O)[C@H]1[C@@]3(C)CCC(=O)[C@@H](C)[C@@H]3CC[C@@]12C [Example 34, 3-Keto-16-deacetoxy-16β-isopropylthiofusidic acid] | 0.4 µg/mL (≈ 0.754 µM) | 0.05 µg/mL (≈ 0.0942 µM) | 5 µg/mL (≈ 9.42 µM) | 1 µg/mL (≈ 1.88 µM) | 0.04 µg/mL (≈ 0.0754 µM) |
| CC(C)=CCC/C(C(=O)O)=C1/[C@@H]([S+]([O-])C(C)C)C[C@@]2(C)[C@H]1C[C@@H](O)[C@H]1[C@@]3(C)CC[C@@H](O)[C@@H](C)[C@@H]3CC[C@@]12C (stereo partly drawn) [Example 35, 16-deacetoxy-16β-isopropylsulfinylfusidic acid] | 0.2 µg/mL (≈ 0.364 µM) | 0.4 µg/mL (≈ 0.729 µM) | 1.3 µg/mL (≈ 2.37 µM) | 0.32 µg/mL (≈ 0.583 µM) | 0.05 µg/mL (≈ 0.0911 µM) |
| CC(C)CCC/C(C(=O)O)=C1/[C@@H]([S+]([O-])C(C)C)C[C@@]2(C)[C@H]1C[C@@H](O)[C@H]1[C@@]3(C)CC[C@@H](O)[C@@H](C)[C@@H]3CC[C@@]12C (stereo partly drawn) [Example 42, 16-Deacetoxy-16β-isopropylsulfinyl-24,25-dihydrofusidic acid] | 0.16 µg/mL (≈ 0.29 µM) | 0.16 µg/mL (≈ 0.29 µM) | 1.6 µg/mL (≈ 2.9 µM) | 0.5 µg/mL (≈ 0.908 µM) | 0.04 µg/mL (≈ 0.0726 µM) |
| CCO[C@H]1C[C@@]2(C)[C@@H](C[C@@H](O)[C@H]3[C@@]4(C)CC[C@@H](O)[C@@H](C)[C@@H]4CC[C@@]32C)/C1=C(\CCC=C(C)C)C(=O)O [Example 46, 16-Deacetoxy-16β-ethoxyfusidic acid] | 1 µg/mL (≈ 1.99 µM) | 0.05 µg/mL (≈ 0.0995 µM) | 1 µg/mL (≈ 1.99 µM) | 5 µg/mL (≈ 9.95 µM) | 0.025 µg/mL (≈ 0.0497 µM) |
| CC(C)=CCC/C(C(=O)O)=C1/[C@@H](OCC(F)(F)F)C[C@@]2(C)[C@H]1C[C@@H](O)[C@H]1[C@@]3(C)CC[C@@H](O)[C@@H](C)[C@@H]3CC[C@@]12C [Example 48, 16-deacetoxy-16β-(2',2',2'-trifluoroethoxy)fusidic acid] | 0.5 µg/mL (≈ 0.898 µM) | 0.02 µg/mL (≈ 0.0359 µM) | 32 µg/mL (≈ 57.5 µM) | 1 µg/mL (≈ 1.8 µM) | 0.016 µg/mL (≈ 0.0287 µM) |
| CC(C)=CCC/C(C(=O)O)=C1/[C@@H](OCCF)C[C@@]2(C)[C@H]1C[C@@H](O)[C@H]1[C@@]3(C)CC[C@@H](O)[C@@H](C)[C@@H]3CC[C@@]12C [Example 50, 16-Deacetoxy-16β-(2'-fluoroethoxy)fusidic acid] | 0.63 µg/mL (≈ 1.21 µM) | 0.05 µg/mL (≈ 0.096 µM) | 0.32 µg/mL (≈ 0.615 µM) | 2.5 µg/mL (≈ 4.8 µM) | 0.02 µg/mL (≈ 0.0384 µM) |
| CC(C)=CCC/C(C(=O)O)=C1/[C@@H](OC(CF)CF)C[C@@]2(C)[C@H]1C[C@@H](O)[C@H]1[C@@]3(C)CC[C@@H](O)[C@@H](C)[C@@H]3CC[C@@]12C [Example 52] | 0.5 µg/mL (≈ 0.905 µM) | 0.04 µg/mL (≈ 0.0724 µM) | 0.63 µg/mL (≈ 1.14 µM) | 3.2 µg/mL (≈ 5.79 µM) | 0.025 µg/mL (≈ 0.0452 µM) |
| CCO[C@H]1C[C@@]2(C)[C@@H](CC(=O)[C@H]3[C@@]4(C)CC[C@@H](O)[C@@H](C)[C@@H]4CC[C@@]32C)/C1=C(\CCC=C(C)C)C(=O)O [Example 75, 11-Keto-16-deacetoxy-16β-ethoxyfusidic acid] | 1 µg/mL (≈ 2 µM) | 0.05 µg/mL (≈ 0.0999 µM) | 13 µg/mL (≈ 26 µM) | 3.2 µg/mL (≈ 6.39 µM) | 0.02 µg/mL (≈ 0.0399 µM) |
| CC(C)=CCC/C(C(=O)O)=C1/[C@@H](OCCF)C[C@@]2(C)[C@H]1CC(=O)[C@H]1[C@@]3(C)CC[C@@H](O)[C@@H](C)[C@@H]3CC[C@@]12C [Example 76, 11-Keto-16-deacetoxy-16β-(2'-fluoroethoxy)fusidic acid] | 1.6 µg/mL (≈ 3.08 µM) | 0.032 µg/mL (≈ 0.0617 µM) | 2 µg/mL (≈ 3.86 µM) | 4 µg/mL (≈ 7.71 µM) | 0.025 µg/mL (≈ 0.0482 µM) |
| CC(=O)O[C@H]1C[C@@]2(C)[C@@H](C[C@@H](O)[C@H]3[C@@]4(C)CC[C@@H](O)[C@@H](C)[C@@H]4CC[C@@]32C)/C1=C(\CCC=C(C)C)C(=O)O [Fusidic acid, reference compound] | 0.79 µg/mL (≈ 1.53 µM) | 0.2 µg/mL (≈ 0.387 µM) | 1.6 µg/mL (≈ 3.1 µM) | 1.6 µg/mL (≈ 3.1 µM) | 0.032 µg/mL (≈ 0.0619 µM) |
